Assay results: publication PMC8603191, “Fragment-based design of selective GPCR ligands guided by free energy simulations” (Chemical communications (Cambridge, England), 2021)
“And” between values parts separate entries of the source, which are not always exact repeats. Equal entries are not always repeated. “Also recorded” adds a separate entry of the source.

What was measured:
hA1AR [1] = experiment: Ki values of known ligands downloaded from the ChEMBL database; assay type: binding, human; conditions: from ChEMBL Ki values hA1AR and hA2AAR
Source text: Table S5. Highest affinity human A1AR ligands (with < 20 HA) in the ChEMBL database compared to compound 22.a […]
a Known A1AR and A2AAR ligands with determined Ki values were downloaded from the ChEMBL database.
Compounds with motifs found in pan-assay interference compounds16 were excluded using OpenEye Toolkits 2020.2.0 OpenEye Scientific Software, Santa Fe, NM. http://www.eyesopen.com.

hA1AR [2] = target: hA1AR; parameters: method as in ChEMBL database; conditions: ligands with < 20 HA; ref ChEMBL database; cited from earlier work
hA2AAR = target: hA2AAR; parameters: method as in ChEMBL database; conditions: ligands with < 20 HA; ref ChEMBL database; cited from earlier work
human A2AAR [3] = target: T1, human A2AAR (Homo sapiens, UniProt P29274); experiment: Radioligand binding assay, displacement of [3H]ZM241385; conditions: for Free energy of binding (ΔG) A2AAR: calculated from experimental binding affinities; for ΔΔG Experimental A2AAR: based on Table S3
T1 construct: expressed in transfected cells; host or cells: HEK293 (membrane preparations)
T1 sequence (P29274 whole entry): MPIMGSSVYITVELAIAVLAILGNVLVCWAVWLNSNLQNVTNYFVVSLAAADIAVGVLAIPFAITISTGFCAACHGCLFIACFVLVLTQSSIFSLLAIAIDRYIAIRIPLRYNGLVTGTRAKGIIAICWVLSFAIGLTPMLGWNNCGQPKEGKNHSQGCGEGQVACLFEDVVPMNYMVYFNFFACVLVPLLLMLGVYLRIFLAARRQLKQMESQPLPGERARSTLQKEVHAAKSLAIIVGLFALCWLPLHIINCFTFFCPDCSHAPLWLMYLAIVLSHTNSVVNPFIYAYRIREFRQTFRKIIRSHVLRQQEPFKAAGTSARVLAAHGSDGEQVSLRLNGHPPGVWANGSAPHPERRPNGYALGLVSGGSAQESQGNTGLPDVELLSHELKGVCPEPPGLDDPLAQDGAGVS
Protocol: (§1) Radioligand binding assays. HEK293 cells expressing the human A1- or A2AARs were cultured in DMEM supplemented with 10% fetal bovine serum, 100 Units/ml penicillin, 100 µg/ml streptomycin, and 2 µmol/ml glutamine. Cells were detached from plates by scraping into cold PBS and centrifuged at 250 g for 5 min. The pellets were resuspended in ice-cold Tris HCl buffer (50 mM, pH 7.4) and then homogenized. After homogenization and suspension, cells were centrifuged at 1000 g for 10 min, and the pellet was discarded.
(§2) The suspension was then re-centrifuged at 20,000 g for 60 min at 4 °C. The pellets were resuspended in buffer containing 3 Units/ml adenosine deaminase and incubated at 37°C for 30 min. The aliquots of membrane preparations were stored at −80°C until the binding experiments. For displacement binding assays, membrane preparations (20 µg proteins/tube) were incubated at 25°C for 60 min with a final concentration of [3H]DPCPX (0.5 nM) and [3H]ZM241385 (1.0 nM) for A1- and A2AARs, respectively, in a mixture containing 50 µL of increasing concentrations of a test ligand in a total assay volume of 200 µL of 50 mM Tris HCl, pH 7.4, containing 10 mM MgCl2. Nonspecific binding was determined using 100 µM of XAC. The reaction was terminated by filtration with GF/B filters using a Brandel 24-channel harvester. Filters were placed in scintillation vials containing 5 ml of Hydrofluor scintillation buffer and counted using a PerkinElmer Tricarb 2810TR liquid scintillation counter. […]
(§3) Table S1. Binding affinities of compounds 1-10 based on displacement of [3H]DPCPX and [3H]ZM241385 at the A1AR and A2AAR, respectively.
(§4) Compound Substituent A1AR A2AAR index […]
(§5) a Ki values are expressed as means ± SEM from (2-4) independent experiments. b Free energy of binding (ΔG) calculated from experimental binding affinities (kcal/mol) / Number of heavy atoms (HA). The ligand efficiency (LE) = −ΔG/HA. c Values from Matricon et al.8
(§6) Table S3. Binding affinities of compounds 11-26 based on displacement of [3H]DPCPX and […]
(§7) a K values are expressed as means ± SEM from (2-4) independent experiments.
(§8) Free energy of binding (ΔG) calculated from experimental binding affinities (kcal/mol) / Number of heavy

human A1AR [4] = experiment: Radioligand binding assay, displacement of [3H]DPCPX; conditions: A1AR versus A2AAR; for A1AR selectivity index: from Ki values
Protocol: as §1, §2, §3, §4, §5, §6, §7, §8

human A1AR [5] = target: T2, human A1AR (Homo sapiens, UniProt P30542); experiment: as above; conditions: for Free energy of binding (ΔG) A1AR: calculated from experimental binding affinities; for ΔΔG Experimental A1AR: based on Table S3
T2 construct: expressed in transfected cells; host or cells: HEK293 (membrane preparations)
T2 sequence (P30542 1-326): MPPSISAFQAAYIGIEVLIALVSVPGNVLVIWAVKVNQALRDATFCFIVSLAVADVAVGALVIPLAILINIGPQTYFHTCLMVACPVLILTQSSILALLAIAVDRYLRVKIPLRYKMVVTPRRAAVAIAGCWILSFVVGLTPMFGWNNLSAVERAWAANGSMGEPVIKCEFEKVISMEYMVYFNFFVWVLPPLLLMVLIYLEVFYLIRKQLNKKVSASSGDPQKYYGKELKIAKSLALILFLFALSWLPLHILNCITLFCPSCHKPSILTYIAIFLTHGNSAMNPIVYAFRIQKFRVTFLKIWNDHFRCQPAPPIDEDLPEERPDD
Protocol: as §1, §2, §3, §4, §5, §6, §7, §8

human A1AR [6] = target: T2, human A1AR; experiment: cAMP functional assay; assay type: cell-based; conditions: HEK293 cells, intracellular cAMP, n=3
Protocol: (§9) Functional assays measuring intracellular concentrations of cAMP were performed at the human A1AR and A2AAR to determine the efficacy of compounds 22 and 26. […]
cAMP assay. HEK293 cells were grown in DMEM supplemented with 10% fetal bovine serum, 100 Units/ml penicillin, 100 µg/ml streptomycin, and 2 µmol/ml glutamine. After 24 hours, cells were treated with assay buffer containing rolipram (10 µM), PSB603 (1 µM) and adenosine deaminase (3 units/ml) for 30 min followed by the addition of antagonists for 20 min and subsequent addition of agonists and incubated for another 20 min. For the A1AR assay, after incubation with agonist for 20 min, forskolin (10 µM) was added and incubated for an additional 15 min. The reaction was terminated upon removal of the supernatant, and addition of 100 µl Tween-20 (0.3%). Intracellular cAMP levels […]
(§10) were measured with an ALPHAScreen cAMP assay kit following the instructions from the manufacturer (PerkinElmer).

human A2AAR [7] = target: T1, human A2AAR; experiment: cAMP functional assay; assay type: cell-based; conditions: HEK293 cells, intracellular cAMP, n=3
Protocol: as §9
cAMP assay. HEK293 cells were grown in DMEM supplemented with 10% fetal bovine serum, 100 Units/ml penicillin, 100 µg/ml streptomycin, and 2 µmol/ml glutamine. After 24 hours, cells were treated with assay buffer containing rolipram (10 µM), PSB603 (1 […]
The reaction was terminated upon removal of the supernatant, and addition of 100 µl Tween-20 (0.3%). Intracellular cAMP levels […]
as §10

[8] = displacement of [3H]ZM241385, means ± SEM from 2-4 independent experiments
[9] = displacement of [3H]DPCPX, means ± SEM from 2-4 independent experiments

A1AR selectivity (hA1AR [1]) | Free energy of binding (ΔG) A2AAR (human A2AAR [3]) [kcal/mol] | A1AR selectivity index (human A1AR [4]) | Free energy of binding (ΔG) A1AR (human A1AR [5]) [kcal/mol] | SMILES | Ki (hA1AR [2]) [nM] | Ki (hA2AAR) [nM] | further results
6.8 |  |  |  | Cc1nc(N)c2nc(-n3nccn3)n(C)c2n1 [CHEMBL194290] | 10.4 | 70.4 | 
115.7 |  |  |  | Cn1c(-n2nccn2)nc2c(N)ncnc21 [CHEMBL194728] | 0.4 | 46.3 | 
2.0 |  |  |  | Nc1nc2ccccc2n2nc(-c3ccco3)nc12 [CHEMBL261345] | 5.6 | 11.2 | 
 |  |  |  | Oc1nc2ccccc2n2nc(-c3cccs3)nc12 [CHEMBL328437] | 2 |  | 
0.4 |  |  |  | Cn1ncc2nc(N)n3nc(-c4ccco4)nc3c21 [CHEMBL1935752] | 10 | 3.6 | 
 | -8.8 | 38.4 | -11.0 | CC1(C(=O)Nc2nc3cc(Br)ccc3s2)CCCC1 [Compound 22] |  |  | Ki (human A2AAR [3]; [8]): 384 ± 82 nM; ΔΔG Experimental A2AAR (human A2AAR [3]; reference compound 9): –0.8 ± 0.1 kcal/mol; selectivity for the A1AR (human A1AR [4]; Fig. 1): 38 fold; improvement of A1AR affinity (human A1AR [5]; compared to compound 1): > 1000 fold; Ki (human A1AR [5]; radioligand binding, Fig. 1, Table S5): 10 nM; ΔΔG Experimental A1AR (human A1AR [5]; reference compound 9): –2.4 ± 0.1 kcal/mol; efficacy in cAMP assay at A1AR (human A1AR [6]): antagonists; also recorded: Antagonism; efficacy in cAMP assay at A2AAR (human A2AAR [7]): antagonists; also recorded: Antagonism
 | -7.9 | 27.8 | -9.9 | CC1(C(=O)Nc2nc3cc(C#N)ccc3s2)CCCC1 [Compound 25] |  |  | Ki (human A2AAR [3]; [8]): 1780 ± 740 nM; ΔΔG Experimental A2AAR (human A2AAR [3]; reference compound 9): 0.1 ± 0.3 kcal/mol; Ki (human A1AR [5]; [9]): 64 ± 6 nM; ΔΔG Experimental A1AR (human A1AR [5]; reference compound 9): –1.3 ± 0.1 kcal/mol
 | -9.6 | 0.1 | -8.1 | COc1cccc2sc(NC(=O)c3ccccc3)nc12 [Compound 26] |  |  | A2AAR selectivity (human A2AAR [3]; A2AAR versus A1AR): 13 fold; Ki (human A2AAR [3]; radioligand binding, Table S5): 106 nM; ΔΔG Experimental A2AAR (human A2AAR [3]; reference compound 10): –0.8 ± 0.1 kcal/mol; Ki (human A1AR [5]; [9]): 1330 nM and 1300 nM; ΔΔG Experimental A1AR (human A1AR [5]; reference compound 10): 0.4 ± 0.3 kcal/mol; efficacy in cAMP assay at A1AR (human A1AR [6]): antagonists; also recorded: Antagonism; efficacy in cAMP assay at A2AAR (human A2AAR [7]): antagonists; also recorded: Antagonism
